Test results reported in the supplement of paper PMC6045584.
± gives the standard deviation of the averaged measurements.

Key:
MLN-4924 = compound: NS(=O)(=O)OC[C@@H]1C[C@@H](n2ccc3c(N[C@H]4CCc5ccccc54)ncnc32)C[C@@H]1O [MLN-4924]; assay: surviving fraction relative to DMSO-only wells; higher = less growth inhibition; details: exposure time: 5 days
How it was run: (§1)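 Inhibitors at 0.5, 1, 5, 10, 50, 100, 500 and 1000 nM were applied continuously for five days to tumour cell lines seeded in log phase at 250–500 cells per well in 384-well plates 24 hours earlier. Viability was measured by CellTiter-Glo luminescence and expressed as surviving fraction relative to the median of DMSO-only wells. Luminescence was taken after 10 minutes at room temperature.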

DASATINIB = compound: Cc1nc(Nc2ncc(C(=O)Nc3c(C)cccc3Cl)s2)cc(N2CCN(CCO)CC2)n1 [DASATINIB]; assay: as above; details: exposure time: 5 days
How it was run: as §1

## G292 BONE
MLN-4924; 0.5 nM
  surviving fraction: 1.02 ± 0.031
MLN-4924; 1 nM
  surviving fraction: 1 ± 0.048
MLN-4924; 5 nM
  surviving fraction: 1.04 ± 0.017
MLN-4924; 10 nM
  surviving fraction: 1.03 ± 0.054
MLN-4924; 50 nM
  surviving fraction: 0.909 ± 0.049
MLN-4924; 100 nM
  surviving fraction: 0.623 ± 0.068
MLN-4924; 500 nM
  surviving fraction: 0.295 ± 0.011
MLN-4924; 1000 nM
  surviving fraction: 0.266 ± 0.019
DASATINIB; 0.5 nM
  surviving fraction: 0.94 ± 0.04
DASATINIB; 1 nM
  surviving fraction: 0.894 ± 0.036
DASATINIB; 5 nM
  surviving fraction: 0.811 ± 0.049
DASATINIB; 10 nM
  surviving fraction: 0.683 ± 0.032
DASATINIB; 50 nM
  surviving fraction: 0.348 ± 0.013
DASATINIB; 100 nM
  surviving fraction: 0.269 ± 0.033
DASATINIB; 500 nM
  surviving fraction: 0.213 ± 0.018
DASATINIB; 1000 nM
  surviving fraction: 0.2077 ± 0.0011

## HCC38 BREAST
MLN-4924; 0.5 nM
  surviving fraction: 1.35 ± 0.069
MLN-4924; 1 nM
  surviving fraction: 1.48 ± 0.14
MLN-4924; 5 nM
  surviving fraction: 1.02 ± 0.14
MLN-4924; 10 nM
  surviving fraction: 1.22 ± 0.18
MLN-4924; 50 nM
  surviving fraction: 0.624 ± 0.064
MLN-4924; 100 nM
  surviving fraction: 0.269 ± 0.025
MLN-4924; 500 nM
  surviving fraction: 0.0757 ± 0.0075
MLN-4924; 1000 nM
  surviving fraction: 0.0803 ± 0.013
DASATINIB; 0.5 nM
  surviving fraction: 0.962 ± 0.17
DASATINIB; 1 nM
  surviving fraction: 0.868 ± 0.087
DASATINIB; 5 nM
  surviving fraction: 0.697 ± 0.043
DASATINIB; 10 nM
  surviving fraction: 0.896 ± 0.17
DASATINIB; 50 nM
  surviving fraction: 1.01 ± 0.18
DASATINIB; 100 nM
  surviving fraction: 0.911 ± 0.16
DASATINIB; 500 nM
  surviving fraction: 0.664 ± 0.1
DASATINIB; 1000 nM
  surviving fraction: 0.583 ± 0.12

## HCC70 BREAST
MLN-4924; 0.5 nM
  surviving fraction: 1.06 ± 0.14
MLN-4924; 1 nM
  surviving fraction: 1.09 ± 0.06
MLN-4924; 5 nM
  surviving fraction: 1.07 ± 0.066
MLN-4924; 10 nM
  surviving fraction: 0.96 ± 0.071
MLN-4924; 50 nM
  surviving fraction: 0.582 ± 0.041
MLN-4924; 100 nM
  surviving fraction: 0.41 ± 0.029
MLN-4924; 500 nM
  surviving fraction: 0.14 ± 0.037
MLN-4924; 1000 nM
  surviving fraction: 0.103 ± 0.014
DASATINIB; 0.5 nM
  surviving fraction: 1.03 ± 0.094
DASATINIB; 1 nM
  surviving fraction: 1.04 ± 0.027
DASATINIB; 5 nM
  surviving fraction: 1.15 ± 0.1
DASATINIB; 10 nM
  surviving fraction: 0.996 ± 0.079
DASATINIB; 50 nM
  surviving fraction: 0.902 ± 0.15
DASATINIB; 100 nM
  surviving fraction: 0.655 ± 0.057
DASATINIB; 500 nM
  surviving fraction: 0.574 ± 0.14
DASATINIB; 1000 nM
  surviving fraction: 0.581 ± 0.16

## HMLE3 BREAST
MLN-4924; 0.5 nM
  surviving fraction: 1.04 ± 0.046
MLN-4924; 1 nM
  surviving fraction: 1.08 ± 0.031
MLN-4924; 5 nM
  surviving fraction: 1.07 ± 0.016
MLN-4924; 10 nM
  surviving fraction: 1.25 ± 0.019
MLN-4924; 50 nM
  surviving fraction: 1.07 ± 0.016
MLN-4924; 100 nM
  surviving fraction: 0.698 ± 0.024
MLN-4924; 500 nM
  surviving fraction: 0.175 ± 0.017
MLN-4924; 1000 nM
  surviving fraction: 0.114 ± 0.025
DASATINIB; 0.5 nM
  surviving fraction: 0.898 ± 0.042
DASATINIB; 1 nM
  surviving fraction: 0.856 ± 0.067
DASATINIB; 5 nM
  surviving fraction: 0.856 ± 0.02
DASATINIB; 10 nM
  surviving fraction: 0.7 ± 0.013
DASATINIB; 50 nM
  surviving fraction: 0.776 ± 0.029
DASATINIB; 100 nM
  surviving fraction: 0.716 ± 0.043
DASATINIB; 500 nM
  surviving fraction: 0.588 ± 0.023
DASATINIB; 1000 nM
  surviving fraction: 0.553 ± 0.033

## HMT3552 BREAST
MLN-4924; 0.5 nM
  surviving fraction: 1.04 ± 0.012
MLN-4924; 1 nM
  surviving fraction: 1.11 ± 0.054
MLN-4924; 5 nM
  surviving fraction: 1.11 ± 0.062
MLN-4924; 10 nM
  surviving fraction: 1.11 ± 0.032
MLN-4924; 50 nM
  surviving fraction: 0.458 ± 0.03
MLN-4924; 100 nM
  surviving fraction: 0.295 ± 0.021
MLN-4924; 500 nM
  surviving fraction: 0.154 ± 0.008
MLN-4924; 1000 nM
  surviving fraction: 0.108 ± 0.0046
DASATINIB; 0.5 nM
  surviving fraction: 0.913 ± 0.043
DASATINIB; 1 nM
  surviving fraction: 0.848 ± 0.067
DASATINIB; 5 nM
  surviving fraction: 0.705 ± 0.013
DASATINIB; 10 nM
  surviving fraction: 0.612 ± 0.063
DASATINIB; 50 nM
  surviving fraction: 0.259 ± 0.0081
DASATINIB; 100 nM
  surviving fraction: 0.15 ± 0.017
DASATINIB; 500 nM
  surviving fraction: 0.105 ± 0.0076
DASATINIB; 1000 nM
  surviving fraction: 0.123 ± 0.021

## HS57T BREAST
MLN-4924; 0.5 nM
  surviving fraction: 0.977 ± 0.059
MLN-4924; 1 nM
  surviving fraction: 0.977 ± 0.069
MLN-4924; 5 nM
  surviving fraction: 1.02 ± 0.064
MLN-4924; 10 nM
  surviving fraction: 1.01 ± 0.07
MLN-4924; 50 nM
  surviving fraction: 0.783 ± 0.093
MLN-4924; 100 nM
  surviving fraction: 0.523 ± 0.021
MLN-4924; 500 nM
  surviving fraction: 0.139 ± 0.015
MLN-4924; 1000 nM
  surviving fraction: 0.106 ± 0.0065
DASATINIB; 0.5 nM
  surviving fraction: 0.852 ± 0.056
DASATINIB; 1 nM
  surviving fraction: 0.814 ± 0.024
DASATINIB; 5 nM
  surviving fraction: 0.832 ± 0.033
DASATINIB; 10 nM
  surviving fraction: 0.788 ± 0.076
DASATINIB; 50 nM
  surviving fraction: 0.423 ± 0.022
DASATINIB; 100 nM
  surviving fraction: 0.37 ± 0.029
DASATINIB; 500 nM
  surviving fraction: 0.17 ± 0.016
DASATINIB; 1000 nM
  surviving fraction: 0.142 ± 0.0095

## HS578T BREAST
MLN-4924; 0.5 nM
  surviving fraction: 0.822 ± 0.14
MLN-4924; 1 nM
  surviving fraction: 0.96 ± 0.14
MLN-4924; 5 nM
  surviving fraction: 0.898 ± 0.05
MLN-4924; 10 nM
  surviving fraction: 0.957 ± 0.11
MLN-4924; 50 nM
  surviving fraction: 0.63 ± 0.021
MLN-4924; 100 nM
  surviving fraction: 0.494 ± 0.037
MLN-4924; 500 nM
  surviving fraction: 0.342 ± 0.04
MLN-4924; 1000 nM
  surviving fraction: 0.326 ± 0.057
DASATINIB; 0.5 nM
  surviving fraction: 0.862 ± 0.13
DASATINIB; 1 nM
  surviving fraction: 0.829 ± 0.15
DASATINIB; 5 nM
  surviving fraction: 0.669 ± 0.051
DASATINIB; 10 nM
  surviving fraction: 0.593 ± 0.044
DASATINIB; 50 nM
  surviving fraction: 0.343 ± 0.029
DASATINIB; 100 nM
  surviving fraction: 0.252 ± 0.04
DASATINIB; 500 nM
  surviving fraction: 0.125 ± 0.02
DASATINIB; 1000 nM
  surviving fraction: 0.126 ± 0.012
